Measurements reported in patent US20200399222A1, “PICOLINAMIDES AS FUNGICIDES” (Dow AgroSciences LLC, priority 2018, published 2020).
Where two headings read alike, the source gives them in different places.

Tests used:
Zymoseptoria tritici = experiment: Leaf blotch of wheat (SEPTTR) disease control on wheat seedlings; format: in vivo; conditions: High volume application, 100 ppm
Procedure: Example A: Evaluation of Fungicidal Activity: Leaf Blotch of Wheat (Zymoseptoria tritici; Bayer Code […]) Technical grades of materials were dissolved in acetone, which were then mixed with nine volumes of water containing 110 ppm Triton X-100. The fungicide solutions were applied onto wheat seedlings using an automated booth sprayer to run-off. All sprayed plants were allowed to air dry prior to further handling. All fungicides were evaluated using the aforementioned method for their activity vs. all target diseases, unless stated otherwise. Wheat leaf blotch and brown rust activity were also evaluated using track spray applications, in which case the fungicides were formulated as EC formulations, containing 0.1% Trycol 5941 in the spray solutions. Wheat plants (variety Yuma) were grown from seed in a greenhouse in 50% mineral soil/50% soil-less Metro mix until the first leaf was fully emerged, with 7-10 seedlings per pot. These plants were inoculated with an aqueous spore suspension of Zymoseptoria tritici either prior to or after fungicide treatments. After inoculation the plants were kept in 100% relative humidity (one day in a dark dew chamber followed by two to three days in a lighted dew chamber at 20° C.) to permit spores to germinate and infect the leaf. The plants were then transferred to a greenhouse set at 20° C. for disease to develop. When disease symptoms were fully expressed on the 1st leaves of untreated plants, infection levels were assessed on a scale of 0 to 100 percent disease severity. Percent disease control was calculated using the ratio of disease severity on treated plants relative to untreated plants.

Puccinia triticina = experiment: Wheat brown rust (PUCCRT) disease control on wheat seedlings; format: in vivo; conditions: High volume application, 100 ppm
Procedure: Technical grades of materials were dissolved in acetone, which were then mixed with nine volumes of water containing 110 ppm Triton X-100. The fungicide solutions were applied onto wheat seedlings using an automated booth sprayer to run-off. All sprayed plants were allowed to air dry prior to further handling. All fungicides were evaluated using the aforementioned method for their activity vs. all target diseases, unless stated otherwise. Wheat leaf blotch and brown rust activity were also evaluated using track spray applications, in which case the fungicides were formulated as EC formulations, containing 0.1% Trycol 5941 in the spray solutions. Example B: Evaluation of Fungicidal Activity: Wheat Brown Rust (Puccinia triticina; Synonym: Puccinia recondita f. sp. tritici; Bayer Code PUCCRT) Wheat plants (variety Yuma) were grown from seed in a greenhouse in 50% mineral soil/50% soil-less Metro mix until the first leaf was fully emerged, with 7-10 seedlings per pot. These plants were inoculated with an aqueous spore suspension of Puccinia triticina either prior to or after fungicide treatments. After inoculation the plants were kept in a dark dew room at 22° C. with 100% relative humidity overnight to permit spores to germinate and infect the leaf. The plants were then transferred to a greenhouse set at 24° C. for disease to develop. Fungicide formulation, application and disease assessment followed the procedures as described in the Example A.

[1] = 24 h, 1 Day Protectant, read-out: SEPTTR disease control rating, 1DP
[2] = 72 h, 3 Day Curative, read-out: SEPTTR disease control rating, 3DC
[3] = 24 h, 1 Day Protectant, read-out: PUCCRT disease control rating, 1DP
[4] = 72 h, 3 Day Curative, read-out: PUCCRT disease control rating, 3DC

Compound: COc1ccnc(C(=O)N[C@H](C)C(=O)O[C@H](C)[C@@H](C)c2ccc(F)cc2C)c1O [Example 154]
- pest or weed control at 100 ppm (Zymoseptoria tritici; [1]): < 80%
- pest or weed control at 100 ppm (Zymoseptoria tritici; [2]): < 80%
- pest or weed control at 100 ppm (Puccinia triticina; [3]): < 0%
- pest or weed control at 100 ppm (Puccinia triticina; [4]): < 0%

Compound: COc1ccnc(C(=O)N[C@@H](C)C(=O)O[C@H](C)[C@H](C)C2CCCC2)c1O [Example 163]
- pest or weed control at 100 ppm (Zymoseptoria tritici; [1]): < 80%
- pest or weed control at 100 ppm (Zymoseptoria tritici; [2]): < 80%
- pest or weed control at 100 ppm (Puccinia triticina; [3]): < 80%
- pest or weed control at 100 ppm (Puccinia triticina; [4]): < 80%

Compound: COc1ccnc(C(=O)N[C@@H](C)C(=O)O[C@@H](C)[C@@H](C)c2ccc(F)cc2)c1O [Example 131]
- pest or weed control at 100 ppm (Zymoseptoria tritici; [1]): < 80%
- pest or weed control at 100 ppm (Zymoseptoria tritici; [2]): < 80%
- pest or weed control at 100 ppm (Puccinia triticina; [3]): > 80%
- pest or weed control at 100 ppm (Puccinia triticina; [4]): > 80%

Compound: COc1ccnc(C(=O)N[C@@H](C)C(=O)O[C@H](C)[C@H](C)c2ccc(C)cc2C)c1O [Example 117]
- pest or weed control at 100 ppm (Zymoseptoria tritici; [1]): < 80%
- pest or weed control at 100 ppm (Zymoseptoria tritici; [2]): < 80%
- pest or weed control at 100 ppm (Puccinia triticina; [3]): < 80%
- pest or weed control at 100 ppm (Puccinia triticina; [4]): < 80%

Compound: COc1ccnc(C(=O)N[C@@H](C)C(=O)O[C@H](C)[C@H](C)c2ccc(F)cc2)c1O [Example 136]
- pest or weed control at 100 ppm (Zymoseptoria tritici; [1]): < 80%
- pest or weed control at 100 ppm (Zymoseptoria tritici; [2]): < 80%
- pest or weed control at 100 ppm (Puccinia triticina; [3]): > 80%
- pest or weed control at 100 ppm (Puccinia triticina; [4]): < 80%

Compound: COc1ccc([C@@H](C)[C@@H](C)OC(=O)[C@@H](NC(=O)c2nccc(OC)c2O)C(C)C)c(C)c1 [Example 147]
- pest or weed control at 100 ppm (Zymoseptoria tritici; [1]): > 80%
- pest or weed control at 100 ppm (Zymoseptoria tritici; [2]): < 80%
- pest or weed control at 100 ppm (Puccinia triticina; [3]): > 80%
- pest or weed control at 100 ppm (Puccinia triticina; [4]): < 80%

Compound: COc1ccnc(C(=O)N[C@H](C(=O)O[C@@H](C)[C@H](C)c2ccc(F)cc2C)C(C)C)c1O [Example 139]
- pest or weed control at 100 ppm (Zymoseptoria tritici; [1]): < 80%
- pest or weed control at 100 ppm (Zymoseptoria tritici; [2]): < 80%
- pest or weed control at 100 ppm (Puccinia triticina; [3]): < 80%
- pest or weed control at 100 ppm (Puccinia triticina; [4]): < 0%

Compound: COc1ccnc(C(=O)N[C@H](C)C(=O)O[C@@H](C)[C@@H](C)c2ccc(F)cc2)c1O [Example 151]
- pest or weed control at 100 ppm (Zymoseptoria tritici; [1]): < 80%
- pest or weed control at 100 ppm (Zymoseptoria tritici; [2]): < 80%
- pest or weed control at 100 ppm (Puccinia triticina; [3]): < 80%
- pest or weed control at 100 ppm (Puccinia triticina; [4]): < 0%

Compound: COc1ccnc(C(=O)N[C@@H](C)C(=O)O[C@@H](C)[C@@H](C)C2CCCC2)c1O [Example 160]
- pest or weed control at 100 ppm (Zymoseptoria tritici; [1]): < 80%
- pest or weed control at 100 ppm (Zymoseptoria tritici; [2]): < 80%
- pest or weed control at 100 ppm (Puccinia triticina; [3]): < 80%
- pest or weed control at 100 ppm (Puccinia triticina; [4]): > 80%

Compound: COc1ccnc(C(=O)N[C@@H](C)C(=O)O[C@@H](C)[C@@H](C)c2ccc(N(C)C)cc2)c1O [Example 176]
- pest or weed control at 100 ppm (Zymoseptoria tritici; [1]): < 0%
- pest or weed control at 100 ppm (Zymoseptoria tritici; [2]): < 80%
- pest or weed control at 100 ppm (Puccinia triticina; [3]): > 80%
- pest or weed control at 100 ppm (Puccinia triticina; [4]): < 80%

Compound: COc1ccnc(C(=O)NCC(=O)O[C@H](C)[C@@H](C)c2ccc(F)cc2C)c1O [Example 124]
- pest or weed control at 100 ppm (Zymoseptoria tritici; [1]): < 0%
- pest or weed control at 100 ppm (Zymoseptoria tritici; [2]): < 80%
- pest or weed control at 100 ppm (Puccinia triticina; [3]): < 80%
- pest or weed control at 100 ppm (Puccinia triticina; [4]): < 0%

Compound: COc1ccnc(C(=O)N[C@@H](C)C(=O)O[C@H](C)[C@H](C)c2c(C)cccc2C)c1O [Example 168]
- pest or weed control at 100 ppm (Zymoseptoria tritici; [1]): < 80%
- pest or weed control at 100 ppm (Zymoseptoria tritici; [2]): > 80%
- pest or weed control at 100 ppm (Puccinia triticina; [3]): > 80%
- pest or weed control at 100 ppm (Puccinia triticina; [4]): > 80%

Compound: COc1ccnc(C(=O)N[C@H](C(=O)O[C@H](C)[C@@H](C)c2ccc(F)cc2C)C(C)C)c1O [Example 144]
- pest or weed control at 100 ppm (Zymoseptoria tritici; [1]): < 80%
- pest or weed control at 100 ppm (Zymoseptoria tritici; [2]): < 80%
- pest or weed control at 100 ppm (Puccinia triticina; [3]): < 0%
- pest or weed control at 100 ppm (Puccinia triticina; [4]): < 80%

Compound: COc1ccc([C@@H](C)[C@@H](C)OC(=O)CNC(=O)c2nccc(OC)c2O)c(C)c1 [Example 127]
- pest or weed control at 100 ppm (Zymoseptoria tritici; [1]): < 0%
- pest or weed control at 100 ppm (Zymoseptoria tritici; [2]): < 80%
- pest or weed control at 100 ppm (Puccinia triticina; [3]): < 80%
- pest or weed control at 100 ppm (Puccinia triticina; [4]): < 80%

Compound: COc1ccnc(C(=S)N[C@@H](C)C(=O)O[C@@H](C)[C@@H](C)c2ccc(F)cc2C(F)(F)F)c1O [Example 268]
- pest or weed control at 100 ppm (Zymoseptoria tritici; [1]): < 80%
- pest or weed control at 100 ppm (Zymoseptoria tritici; [2]): < 80%
- pest or weed control at 100 ppm (Puccinia triticina; [3]): > 80%
- pest or weed control at 100 ppm (Puccinia triticina; [4]): < 80%
